From patent US20170073337A1, “DIHYDROTHIAZINE AND DIHYDROOXAZINE DERIVATIVES HAVING BACE1 INHIBITORY ACTIVITY” (Shionogi & Co., Ltd., priority 2014, published 2017)

Tests used:
[1] = target: T1, CYP2C9 (Homo sapiens, UniProt P11712); test: CYP inhibition test (CYP2C9); type: in vitro ADME; conditions: pooled human liver microsomes; tolbutamide methyl-hydroxylation
T1 construct: The commercially available pooled human liver microsomes are used as an enzyme resource; from tissue; host or cells: pooled human liver microsomes
T1 sequence (P11712 whole entry): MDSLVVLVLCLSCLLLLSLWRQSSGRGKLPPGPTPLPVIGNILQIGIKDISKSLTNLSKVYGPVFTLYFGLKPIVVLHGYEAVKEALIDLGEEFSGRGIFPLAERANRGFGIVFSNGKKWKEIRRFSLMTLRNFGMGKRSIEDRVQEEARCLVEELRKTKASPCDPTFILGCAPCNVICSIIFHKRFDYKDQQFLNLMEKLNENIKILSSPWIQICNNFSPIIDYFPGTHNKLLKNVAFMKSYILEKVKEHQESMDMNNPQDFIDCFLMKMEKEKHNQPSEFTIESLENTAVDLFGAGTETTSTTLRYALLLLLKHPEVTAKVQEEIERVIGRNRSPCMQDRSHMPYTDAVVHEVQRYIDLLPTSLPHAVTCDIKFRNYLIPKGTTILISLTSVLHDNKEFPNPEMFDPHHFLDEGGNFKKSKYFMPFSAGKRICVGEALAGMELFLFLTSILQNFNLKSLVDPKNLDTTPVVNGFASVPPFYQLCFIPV
Method in brief: (§1)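 Pooled human liver microsomes (0.2 mg protein/mL) with compound at 1, 5, 10 and 20 μmol/L and NADPH, at 37 °C. Marker substrates: dextromethorphan 5 μmol/L (2D6), terfenadine 1 μmol/L (3A4), S-mephenytoin 50 μmol/L (2C19), tolbutamide 100 μmol/L (2C9). Metabolites were measured by LC/MS/MS, and IC50 was derived by logistic fit of remaining activity against the DMSO control.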

[2] = target: T2, CYP2D6 (Homo sapiens, UniProt P10635); test: CYP inhibition test (CYP2D6); type: in vitro ADME; conditions: pooled human liver microsomes; dextromethorphan O-demethylation
T2 construct: The commercially available pooled human liver microsomes are used as an enzyme resource; from tissue; host or cells: pooled human liver microsomes
T2 sequence (P10635 whole entry): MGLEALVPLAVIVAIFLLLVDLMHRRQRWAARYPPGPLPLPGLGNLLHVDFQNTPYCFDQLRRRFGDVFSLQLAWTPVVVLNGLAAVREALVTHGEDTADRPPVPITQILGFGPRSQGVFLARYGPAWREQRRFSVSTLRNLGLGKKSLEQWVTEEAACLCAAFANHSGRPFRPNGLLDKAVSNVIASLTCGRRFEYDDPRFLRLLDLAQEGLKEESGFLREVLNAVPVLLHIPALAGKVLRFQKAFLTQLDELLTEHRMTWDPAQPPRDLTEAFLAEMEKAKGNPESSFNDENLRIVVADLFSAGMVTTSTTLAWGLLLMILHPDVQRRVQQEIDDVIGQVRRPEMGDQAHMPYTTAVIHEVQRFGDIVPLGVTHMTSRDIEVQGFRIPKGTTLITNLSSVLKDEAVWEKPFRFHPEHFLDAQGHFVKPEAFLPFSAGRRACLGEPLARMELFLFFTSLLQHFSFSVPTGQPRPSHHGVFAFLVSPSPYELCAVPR
Method in brief: as §1

[3] = Brain distribution studies; type: in vivo; conditions: rat, 30 minutes later, area ratio brain/plasma; for Kp at 0.5 h: brain / plasma, iv, 0.5 mg/mL/kg
Description: Compound of the present invention was intravenously administered to a rat at 0.5 mg/mL/kg dosage. 30 minutes later, all blood was drawn from the abdominal aorta under isoflurane anesthesia for death from exsanguination. […] The obtained blood was used as plasma after centrifuging. The control plasma was added to the brain sample at 1:1. The control brain homogenate was added to the plasma sample at 1:1. Each sample was measured using LC/MS/MS. The obtained area ratio (a brain/plasma) was used for the brain Kp value.

[4] = target: T3, P-gp (MDR1 expressing LLC-PK1 cells) (Homo sapiens, UniProt P08183); test: P-gp substrate test; type: in vitro ADME; conditions: net flux = Efflux Ratio in MDR1 expressing cells / Efflux Ratio in parent LLC-PK1 cells
T3 construct: host or cells: LLC-PK1
T3 sequence (P08183 whole entry): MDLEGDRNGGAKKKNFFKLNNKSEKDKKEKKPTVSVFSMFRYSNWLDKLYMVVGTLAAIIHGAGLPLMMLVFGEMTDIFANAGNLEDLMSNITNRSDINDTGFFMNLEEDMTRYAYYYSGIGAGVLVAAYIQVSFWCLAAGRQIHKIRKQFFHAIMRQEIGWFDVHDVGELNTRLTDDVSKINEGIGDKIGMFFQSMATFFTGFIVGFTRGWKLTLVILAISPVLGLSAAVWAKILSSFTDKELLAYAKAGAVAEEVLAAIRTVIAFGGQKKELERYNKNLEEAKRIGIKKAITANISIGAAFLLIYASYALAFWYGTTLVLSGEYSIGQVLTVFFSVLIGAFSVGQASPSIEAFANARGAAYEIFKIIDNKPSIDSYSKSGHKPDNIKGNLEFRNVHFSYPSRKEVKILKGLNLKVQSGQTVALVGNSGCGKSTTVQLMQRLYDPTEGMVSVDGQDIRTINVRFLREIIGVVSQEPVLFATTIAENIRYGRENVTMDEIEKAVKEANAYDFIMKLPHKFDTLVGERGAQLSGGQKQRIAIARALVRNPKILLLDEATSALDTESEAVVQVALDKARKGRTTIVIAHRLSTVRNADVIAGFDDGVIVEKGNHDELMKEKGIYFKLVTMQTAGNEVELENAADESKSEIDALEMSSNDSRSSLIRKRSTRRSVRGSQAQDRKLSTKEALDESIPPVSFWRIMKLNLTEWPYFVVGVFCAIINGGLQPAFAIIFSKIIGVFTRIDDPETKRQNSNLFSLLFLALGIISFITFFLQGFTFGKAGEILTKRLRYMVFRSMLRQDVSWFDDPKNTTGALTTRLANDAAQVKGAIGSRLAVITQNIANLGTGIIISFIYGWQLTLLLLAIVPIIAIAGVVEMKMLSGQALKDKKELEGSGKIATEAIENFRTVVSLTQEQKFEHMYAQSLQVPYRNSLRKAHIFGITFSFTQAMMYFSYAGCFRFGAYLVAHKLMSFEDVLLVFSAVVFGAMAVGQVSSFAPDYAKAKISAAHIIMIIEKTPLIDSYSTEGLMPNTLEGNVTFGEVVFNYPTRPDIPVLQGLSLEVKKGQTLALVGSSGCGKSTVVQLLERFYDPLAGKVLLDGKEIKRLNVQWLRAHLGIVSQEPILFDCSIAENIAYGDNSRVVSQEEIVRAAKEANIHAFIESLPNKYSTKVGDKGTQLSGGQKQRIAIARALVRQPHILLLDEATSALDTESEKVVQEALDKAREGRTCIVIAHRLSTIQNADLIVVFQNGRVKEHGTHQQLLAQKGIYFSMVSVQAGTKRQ
Description: • 1. Cell line: • a. MDR/LLC-PK1 (Becton Dickinson) • b. LLC-PK1 (Becton Dickinson) • 2. Reference substrates: • a Digoxin (2 μM)
1. […] After incubation for designed time at 37° C., an aliquot (50 μL) of transport buffer in the donor and receiver side were collected. Assay was performed by duplicate or triplicate. 3. Reference substrate and the present invention in the aliquot was quantified by LC/MS/MS.
Pc(cm/sec)−Permeated amount (pmol)/area of cell membrane (cm2)/initial concentration (nM)/incubation time (sec)
The efflux ratio was calculated using the following equation:
Efflux Ratio=Basolateral-to-Apical Pe/Apical-to-Basolateral Pe
The net flux was calculated using the following equation
Net flux=Efflux Ratio in MDK1 expressing cells/Efflux Ratio in parent cells

[5] = target: T4, Recombinant human BACE1 (Homo sapiens, UniProt P56817); test: Assay of BACE1 inhibitory activity: 384-well; type: biochemical; conditions: Assay format 384-well
T4 construct: purchased R&D Systems
T4 sequence (P56817 46-501): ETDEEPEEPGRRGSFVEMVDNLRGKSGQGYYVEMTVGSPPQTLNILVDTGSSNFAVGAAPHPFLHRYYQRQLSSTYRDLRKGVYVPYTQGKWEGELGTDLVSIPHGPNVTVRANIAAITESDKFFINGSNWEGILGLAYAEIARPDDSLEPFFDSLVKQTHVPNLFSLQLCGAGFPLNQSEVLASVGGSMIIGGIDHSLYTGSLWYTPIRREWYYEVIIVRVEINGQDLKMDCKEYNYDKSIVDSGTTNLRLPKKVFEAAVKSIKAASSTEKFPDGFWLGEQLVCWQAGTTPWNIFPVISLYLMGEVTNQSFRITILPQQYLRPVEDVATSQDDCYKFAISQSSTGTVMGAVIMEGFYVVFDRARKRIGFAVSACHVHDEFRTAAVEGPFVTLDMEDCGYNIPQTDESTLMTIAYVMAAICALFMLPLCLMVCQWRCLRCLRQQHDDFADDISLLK
Method in brief: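 Recombinant human BACE1 was incubated 2 h at 25 °C with a biotin/Eu-cryptate-labelled peptide substrate and compound in DMSO. Streptavidin-XL665 in pH 7.0 phosphate buffer containing 0.8 mol/L KF was then added for 30 min at 25 °C for HTRF detection.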

[6] = tested on: Aβ production in neuroblastoma SH-SY5Y cells (SH/APPwt); test: β-amyloid (Aβ) production inhibitory effect in cell: 384-well; type: cell-based; conditions: Homo sapiens, Assay format 384-well
Method in brief: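 SH-SY5Y cells overexpressing human wild-type APP were seeded together with test compound (final DMSO 1%) and cultured for 21 h. Aβ1-40 in the supernatant was measured by HTRF after overnight incubation at 4 °C in the dark, reading fluorescence at 620 and 665 nm.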

Row | Compound | IC50 [1] | IC50 [2] | Kp at 0.5 h [3] | ER ratio (Cell: MDR1/LLC-PK1) [4] | IC50 [5] | IC50 [6] | Kp Brain ([3]; intravenous 0.5 mg/mL/kg)
1 | C[C@]1(c2cc(NC(=O)c3cnc(OCF)cn3)ccc2F)N=C(N)O[C@H](CF)[C@@H]1OCC(F)(F)F [Compound I-12] | ≥ 20000 nM | ≥ 10000 nM | 1 | – | – | – | –
2 | CO[C@H]1[C@@H](CF)OC(N)=N[C@]1(C)c1cc(NC(=O)c2cnc(OCF)cn2)ccc1Cl [Compound I-19] | ≥ 20000 nM | – | 0.51 | – | – | – | –
3 | C[C@H]1[C@@H](C(F)(F)F)OC(N)=N[C@]1(C)c1cc(NC(=O)c2cnc(OCF)cn2)ccc1F [Compound I-30] | ≥ 20000 nM | – | 3.2 | – | – | – | –
4 | C[C@H]1[C@@H](C(F)(F)F)OC(N)=N[C@]1(C)c1cc(NC(=O)c2cnc(OCF)cn2)ccc1F [Compound I-41] | – | – | – | 1.4 | 14.6 nM | 15 nM | 1.9
5 | COc1cnc(C(=O)Nc2ccc(F)c([C@@]3(C)N=C(N)O[C@H](C(C)(F)F)[C@@H]3F)c2)cn1 [Compound I-42] | – | – | 2 | 1.5 | 14.7 nM | 21 nM | –
6 | C[C@H]1SC(N)=N[C@](C)(c2cc(NC(=O)c3cnc(OCC(F)(F)F)cn3)ccc2F)[C@H]1F [Compound I-46] | – | ≥ 10000 nM | 1.9 | 1.5 | 23.6 nM | 2.4 nM | –
7 | C[C@H]1SC(N)=N[C@](C)(c2cc(NC(=O)c3cnc(OCF)cn3)ccc2F)C12CC(F)(F)C2 [Compound I-62] | ≥ 10000 nM | – | 4.8 | 0.7 | 7.74 nM | 0.25 nM | –
8 | CO[C@H]1[C@@H](C)SC(N)=N[C@]1(C)c1cc(NC(=O)c2cnc(OCF)cn2)ccc1F [Compound I-87] | ≥ 20000 nM | ≥ 20000 nM | – | 3.4 | 21.4 nM | 0.66 nM | –
9 | COc1cnc(C(=O)Nc2ccc(F)c([C@@]3(C)N=C(N)S[C@H](C)[C@@H]3OC)c2)cn1 [Compound I-90] | ≥ 20000 nM | ≥ 20000 nM | – | 3.1 | 15.3 nM | 0.51 nM | –
10 | COc1cnc(C(=O)Nc2cccc([C@@]3(C)N=C(N)S[C@H](C)[C@@H]3F)c2)cn1 [Compound I-103] | ≥ 10000 nM | ≥ 20000 nM | – | 1.4 | 17.3 nM | 2.1 nM | –
11 | C[C@H]1SC(N)=N[C@](C)(c2cccc(NC(=O)c3cnc(OCF)cn3)c2)[C@H]1F [Compound I-104] | ≥ 10000 nM | ≥ 20000 nM | – | 1.4 | 10.8 nM | 0.49 nM | –
12 | C[C@H]1SC(N)=N[C@](C)(c2cccc(NC(=O)c3cnc(C(F)F)cn3)c2)[C@H]1F [Compound I-106] | ≥ 20000 nM | ≥ 20000 nM | – | 1.9 | 19.4 nM | 2.6 nM | –

Second part, the compound after the results:

Row | IC50 [1] | IC50 [2] | Kp at 0.5 h [3] | ER ratio (Cell: MDR1/LLC-PK1) [4] | IC50 [5] | IC50 [6] | Kp Brain ([3]; intravenous 0.5 mg/mL/kg) | Compound
13 | ≥ 20000 nM | ≥ 20000 nM | 2 | 1.2 | – | – | – | C[C@H]1SC(N)=N[C@](C)(c2nc(NC(=O)c3ccc(C#N)cn3)ccc2F)[C@H]1F [Compound I-1]
14 | ≥ 10000 nM | – | 2.9 | – | – | – | – | C[C@H]1SC(N)=N[C@](C)(c2nc(NC(=O)c3ccc(F)cn3)ccc2F)[C@H]1F [Compound I-2]
15 | ≥ 10000 nM | – | 2.3 | – | – | – | – | C[C@H]1SC(N)=N[C@](C)(c2nc(NC(=O)c3cnc(OCF)cn3)ccc2F)[C@H]1F [Compound I-3]
16 | ≥ 10000 nM | ≥ 20000 nM | 2 | – | – | – | – | C[C@]1(c2nc(NC(=O)c3ccc(C#N)cn3)ccc2F)N=C(N)S[C@H](CF)[C@@H]1F [Compound I-4]
17 | – | – | 2 | – | – | – | – | C[C@@]1(c2cc(NC(=O)c3ccc(C#N)cn3)ccc2F)C[C@@](C)(C(F)(F)F)OC(N)=N1 [Compound I-7]
18 | – | – | 1.8 | 1.3 | – | – | – | COc1cnc(C(=O)Nc2ccc(F)c([C@@]3(C)N=C(N)S[C@H](C)[C@@H]3F)c2)cn1 [Compound I-8]
19 | ≥ 20000 nM | ≥ 20000 nM | 1.1 | 4 | – | – | – | C[C@]1(c2cc(NC(=O)c3ccc(C#N)cn3)ccc2F)N=C(N)O[C@H](CF)[C@@H]1OCC(F)(F)F [Compound I-10]
20 | ≥ 20000 nM | ≥ 20000 nM | 0.56 | 2.4 | – | – | – | C[C@H](F)[C@H]1OC(N)=N[C@](C)(c2cc(NC(=O)c3ccc(C#N)cn3)ccc2F)[C@H]1F [Compound I-13]
21 | ≥ 20000 nM | ≥ 20000 nM | 0.79 | 2.7 | – | – | – | C[C@@H](F)[C@H]1OC(N)=N[C@](C)(c2cc(NC(=O)c3ccc(C#N)cn3)ccc2F)[C@H]1F [Compound I-15]
22 | ≥ 20000 nM | ≥ 20000 nM | 0.74 | 1.1 | 21.1 nM | 6 nM | – | CC(F)(F)[C@H]1OC(N)=N[C@](C)(c2cc(NC(=O)c3ccc(C#N)cn3)ccc2F)[C@H]1F [Compound I-40]
23 | – | – | 1.1 | 1.3 | 4.77 nM | 1.2 nM | – | C[C@H]1SC(N)=N[C@](C)(c2cc(NC(=O)c3cnc(OC(F)F)cn3)ccc2F)[C@H]1F [Compound I-47]
24 | – | ≥ 10000 nM | 2.1 | 1.1 | 7.49 nM | 5.4 nM | – | C[C@H]1SC(N)=N[C@](C)(c2cc(NC(=O)c3cnc(OCC(F)F)cn3)ccc2F)[C@H]1F [Compound I-48]
25 | – | ≥ 20000 nM | 0.63 | 2.1 | 7.62 nM | 0.42 nM | – | Cc1cc(C#N)cnc1C(=O)Nc1ccc(F)c([C@@]2(C)N=C(N)S[C@H](C)[C@@H]2F)c1 [Compound I-52]
26 | – | – | 1.7 | 1.1 | 21.9 nM | 1.1 nM | – | C[C@H]1SC(N)=N[C@](C)(c2cc(NC(=O)c3cnc(C(F)F)cn3)ccc2F)[C@H]1F [Compound I-65]
27 | – | – | 1 | 1.5 | 6.37 nM | 0.25 nM | – | COC[C@H]1SC(N)=N[C@](C)(c2cc(NC(=O)c3cnc(OCF)cn3)ccc2F)[C@H]1F [Compound I-91]
28 | ≥ 10000 nM | ≥ 20000 nM | – | 2.0 | 21.2 nM | 1.8 nM | – | C[C@]1(c2cc(NC(=O)c3ccc(C#N)cn3)ccc2F)N=C(N)O[C@H](C2(F)CC2)[C@@H]1F [Compound I-96]
29 | – | ≥ 20000 nM | 1.8 | 1.1 | 7.84 nM | 0.99 nM | – | C[C@H]1SC(N)=N[C@](C)(c2cc(NC(=O)c3ccc(F)cn3)ccc2F)[C@H]1F [Compound I-116]
